Test [1] has as its system SCC13 cells. Description: MTT assay for cell viability, SCC13 cells. Type of test: cell-based, human. As to conditions: for IC50 / IC90: Homo sapiens, SCC-13, MTT, 24 h treatment, mean ± SD, n = 4; for IC50: read-out: SSC13 Cells IC50 ± SD; for IC90: read-out: SSC13 Cells IC90 ± SD. Here is the method:
(§1) We first investigated the dose-dependent effects of all five compounds on the cell viability of human skin cancer cell line, SCC13 as well as an immortalized human skin keratinocyte cell line, HaCaT through MTT assay. […] IC50 and IC90 values for these compounds against these two cell lines were calculated (Table 1). There were statistically significant differences between these two values with p < 0.05.
(§2) All cell lines were seeded on a 96-well cell culture plate at 2 × 10^5 cells per well. After 24 h, the cells were treated with increasing doses of the compounds (0, 0.0625 μM, 0.125 μM, 0.25 μM, 0.5 μM, 1.0 μM). After incubation for 24 h, the medium was removed and 100 μL of MTT solution (500 µg/mL) in PBS was added and kept for 4 h at 37 °C. The formazan crystals thus formed were dissolved in DMSO and the optical density (OD) was measured at 570 nm using a microplate reader (BioTek Synergy H1 Plate Reader, Winooski, VT, USA).

The test system of test [2] is HaCaT cells. Description: MTT assay for cell viability, HaCaT cells. Type of test: cell-based. The settings on record: 24 h treatment, normal human keratinocytes, mean ± SD, n = 4. Here is the method:
as §1, §2

Test [3] has as its system SCC13 cells. Description: Cell invasion (trans-well, Matrigel) assay. Format: cell-based, human. The settings on record: 24 h, control group 56.50 ± 4.95%. Here is the method:
(§3) Figure 4 Effect of C278 on migration and invasion ability of the SCC13 cells. (A) SCC13 cells were allowed to proliferate in a 24-well plate until reaching confluency. A scratch was made on the plate using a pipette tip. The unattached cells were washed off. The cells were then treated with either 0.1% DMSO or two doses of C278 (0.5 µM and 1.0 µM) and incubated for 24 h. The images were captured at the time of drug treatment and after 24 h of incubation through a light microscope. (Scale bar: 200 µM). (B) Percent wound closure was measured using Image J software and plotted in bar graphs. Results are combined from two independent experiments and presented as mean ± SD; n = 4. (C) SCC13 cells were seeded in the invasion chambers and incubated for 4 h. Now the cells were treated either with 0.1% DMSO or two doses of C278 (0.5 µM and 1.0 µM) for 24 h. The cells from the upper surface of the membrane were removed with cotton swabs. The invaded cells, which were in the lower surface of the membrane, were stained with crystal violet. Images of the invaded cells were captured using a light microscope. (D) The average number of cells invaded was counted in each group and plotted in bar graphs. Results are presented as mean ± SD; n = 4. * p < 0.01, ** p < 0.001, *** p < 0.0001. […]

The test system of test [4] is beclin-1. Description: Western blot, beclin-1 expression in SCC13 cells. Type of test: cell-based, human. As to conditions: SCC13 cells, 0.25, 0.5 and 1 µM, 24 h. Here is the method: (§4) Figure 5 Effect of C278 on apoptotic and autophagy related proteins in SCC13 cells. SCC13 cells were treated with 0.1% DMSO and 0.25, 0.5 and 1 µM of C278 for 24 h. The cells were then lysed in cell lysis buffer and protein was estimated. Western blot was performed to estimate the level of expression for human Bcl2, Cleaved-PARP and Beclin-1. The expression of these proteins was normalized using β-Actin as a loading control. Figures are representatives of 2 independent experiments. Bands were analyzed densiometrically and bar graphs expressing arbitrary units are presented adjacent to the western blot. Error bar represents mean ± SD, n = 4. * p < 0.01. ** p < 0.001.
(§5) SCC13 cells (1–2 × 10^6) cultured in 6-well culture plate were treated with different concentrations of C278 for 24 h. Cells were then lysed in cell lysis buffer containing protease inhibitor cocktail and the protein concentrations in the cleared supernatants were estimated using the bicinchoninic acid (BCA) protein assay. The cell lysates were resolved by 10% SDS-PAGE and transferred to nitrocellulose membrane (BioRad, Hercules, CA, USA). […] Membranes were then washed three times with wash buffer (TBS containing 0.5% Tween), and then incubated with horseradish peroxidase (HRP)-conjugated secondary Ab and detected by enhanced chemiluminescence (ECL) detection system according to the manufacturer’s instructions.

Test [5] has as its system cleaved-PARP. Put plainly: Western blot, cleaved-PARP in SCC13 cells. Type of test: cell-based, human. The settings on record: SCC13 cells, 0.25, 0.5 and 1 µM, 24 h. Here is the method: as §4, §5
Test [6] concerns proliferating cell nuclear antigen (PCNA). Description: Western blot, PCNA expression in SCC13 cells. Type of test: cell-based, human. As to conditions: 24 h, dose-dependent. Here is the method: Figure 3 Effects of C278 on the viability of SCC13 and HaCaT cells (A) SCC13 cells were treated with increasing concentrations of C278 at 24 h, and the percentage cell viability was estimated. Results are combined from two independent experiments and are presented as mean ± SD; n = 4. (B) HaCaT cells were treated with increasing concentrations of C278 at 24 h, and the percentage cell viability was estimated. Results are combined from two independent experiments and are presented as mean ± SD; n = 4. (C) Expression of PCNA was measured through western blot. The expression of this protein was normalized using β-Actin as a loading control. Figures are representatives of 2 independent experiments. (D) Densiometric analysis of bands was performed and the bar graphs expressing arbitrary units are presented. Error bar represents mean ± SD, n = 4. * p < 0.01, ** p < 0.001, *** p < 0.0001.
SCC13 cells (1–2 × 10^6) cultured in 6-well culture plate were treated with different concentrations of C278 for 24 h. […] Membranes were then washed three times with wash buffer (TBS containing 0.5% Tween), and then incubated with horseradish peroxidase (HRP)-conjugated secondary Ab and detected by enhanced chemiluminescence (ECL) detection system according to the manufacturer’s instructions.

The subject of test [7] is Bcl-2. Put plainly: Western blot, Bcl-2 expression in SCC13 cells. The settings on record: SCC13 cells, 0.25, 0.5 and 1 µM, 24 h. Format: cell-based, human. Here is the method:
as §4, §5

Test [8] deals with SCC13 cells. Put plainly: Wound healing (cell migration) assay. As to conditions: 24 h, control group 93.37 ± 3.35. Format: cell-based, human. Here is the method:
as §3, with “graphs.” for “graphs. Results are presented as mean ± SD; n = 4. * p < 0.01, ** p < 0.001, *** p < 0.0001.”
SCC13 cells were seeded on 24-well cell culture plate at a density of 2 × 10^5 cells/well and cultured until cells were confluent. […] Percent change in wound area was measured by Image J software.

On to `Cc1ccc(S(=O)(=O)n2cc3c4c2C(=O)C(NCc2ccccc2)=CC4=NCC3)cc1` [Compound C11], for which, in test [1], the IC50 was 510 ± 30 nM and the 90% effect concentration (IC90) was 920 ± 60 nM. Besides, in test [2], the IC50 was 480 ± 10 nM and the IC90 is 870 ± 30 nM.
Regarding `Cc1ccc(S(=O)(=O)n2cc3c4c2C(=O)C(NCCc2ccc5c(c2)OCO5)=CC4=NCC3)cc1` [Compound C15], in test [1], the IC50 was found to be 5310 ± 190 nM and the concentration for an effect of 90% (IC90) was determined as 9560 ± 350 nM. Further, in test [2], the 50% inhibitory concentration (IC50) came to 730 ± 90 nM and the 90% effect concentration (IC90) was 1320 ± 160 nM.
For `Cc1ccc(S(=O)(=O)n2cc3c4c2C(=O)C(NCc2ccco2)=CC4=NCC3)cc1` [Compound C45], the values for the half-maximal inhibitory concentration (IC50) in test [1] and in test [2] were 2580 ± 230 nM and 5240 ± 80 nM, respectively. Besides, the concentration for an effect of 90% (IC90) in test [1] was 4650 ± 420 nM; in test [2] it was 9430 ± 150 nM.
Turning to `O=C1C(NCCc2ccc3c(c2)OCO3)=CC2=NCCc3c[nH]c1c32` [Compound C238], the results for the IC50 in test [1] and in test [2] were 820 ± 20 nM and 2350 ± 210 nM, respectively. Also, the concentration for an effect of 90% (IC90) in test [1] is 1480 ± 40 nM; in test [2], 4230 ± 360 nM.
In the case of `O=C1C(NCc2cccs2)=CC2=NCCc3c[nH]c1c32` [Compound C278], the figures for the “number of invasive cells” value in test [3] (0.5 μM) and in test [3] (1.0 μM) were 32.00 ± 4.24% and 19.50 ± 4.95%, respectively. In addition, the half-maximal inhibitory concentration (IC50) was found to be 500 ± 110 nM in test [1] and 1150 ± 210 nM in test [2]. Moreover, the IC90 turned out to be 900 ± 210 nM in test [1] and 2070 ± 370 nM in test [2]. Besides, in test [1] (SCC13 vs HaCaT), the “selectivity for killing SCC13 cells compared to HaCaT cells” value is “two-fold”. Besides, in test [4], the “expression of beclin-1” value is reported as “increased in a dose-dependent manner”. For the same compound, the “production of cleaved-PARP” value in test [5] is reported as “increased in a dose-dependent manner”. The “expression of PCNA” value in test [6] is “downregulation”. Besides, the “expression of Bcl-2 protein” value in test [7] is “significantly downregulated”. In addition, the values for the Percent wound closure in test [8] (0.5 μM) and in test [8] (1.0 μM) were 69.06 ± 2.91% and 39.53 ± 2.17%, respectively.

Values taken from paper PMC6722685, “A Novel Marine Natural Product Derived Pyrroloiminoquinone with Potent Activity against Skin Cancer Cells” (Marine Drugs, 2019).
